Reference: patent publication US8337809B2, “Charge-assembled capsules for phototherapy” (William Marsh Rice University, priority 2006, dated 2012)

Assays:
[1] = ICG leakage measurements / thermal degradation in PBS; assay type: physicochemical; conditions: 37° C.
Protocol: The synthesis of ICG-NACs with ICG/PAH=0.04 was scaled up by 10 times. After washing with PBS solution, the precipitate was dispersed in PBS solution (2.6 mL) and split into 0.25 mL aliquots kept under constant shaking in the dark at either 23 or 37° C. Because of the long time scale of this study and the sensitivity of ICG to degradation in water, the suspension fluid was not analyzed for released ICG. Instead, the ICG contained within the ICG-NACs was quantified by inducing the disassembly of the ICG-NACs and immediately measuring the ICG concentration. Specifically, after a given aging time, each aliquot was centrifuged for 30 min and the concentrated precipitate suspension ([…]) was combined with 2.5 mL HNO3 solution (2 wt %). The resulting clear solution was then analyzed through UV-vis spectroscopy. As control samples, fresh ICG solution in PBS was prepared with a concentration close to that of the disassembled NAC solution (˜0.04 mg/mL) and incubated at 23 and 37° C. The samples were kept in the dark during aging.
The ICG content of ICG-NACs (ICG/amine ratio=0.04) was quantified as a function of time by dis-assembling the capsules and measuring the absorbance of free ICG concentration at 780 nm (FIG. 9). For ICG-NACs at 23° C., more than 96% of ICG was retained. […]

[2] = Laser-induced photothermal experiments (808 nm NIR diode laser)
Protocol: (§1) Washed ICG-NACs (0.5 mL, ˜1×10^7 particles/mL, ˜1×10^9 ICG molecules/particles, 0.007 wt % ICG of suspension) were suspended in PBS solution and placed in the wells of a 24 well polystyrene culture dish. Control samples were a 0.007 wt % PBS solution of ICG and PBS solution. Containing 0.5 mL of aqueous suspension or solution, each well was irradiated with a continuous-wave near-infrared diode laser (Coherent FAP-System, 54 W, λ=808 nm, irradiance (Io)) 155 W/cm^2) for various time intervals. The laser beam impinged on the sample with a 6.66 mm diameter. During irradiation, the sample temperature was monitored with a K-type thermocouple (bead diameter) 0.003 in., Omega Engineering) located 1 mm outside the laser spot and recorded using LabVIEW data acquisition software (National Instruments, Austin, Tex.). For the SEM study, 5 identical batches were prepared and irradiated for various times. Each sample was then washed twice with Nanopure water and dried at room temperature for SEM imaging. Viability Assessment of Cells Exposed to ICG-NACs. […] Cell survival was quantified using the Live/Dead viability assay (Molecular Probes). Dead cells were differentiated from live cells through fluorescence microscopy, as the former emitted red fluorescence (from the ethidium homodimer-1 dye precursor) and the latter emitted green fluorescence (from the calcein acetoxymethyl ester dye precursor). […]

[3] = system: fibroblasts (rat maxillary incisor pulp cells (RPC-C2A)); assay: Viability assessment of cells exposed to ICG-NACs (Live/Dead viability assay); assay type: cell-based
Protocol: as §1

[4] = cited from earlier work
[5] = system: animal subjects; conditions: cited from earlier work
[6] = ICG concentration 0.001 mg/ml at 42° C.; cited from earlier work

Structure (SMILES): CC1(C)C(/C=C/C=C/C=C/C=C2\N(CCCCS(=O)(=O)O)c3ccc4ccccc4c3C2(C)C)=[N+](CCCCS(=O)(=O)[O-])c2ccc3ccccc3c21 [ICG, indocyanine green]
- ICG lost at the end of 8 hr ([1]; PBS, dark, capsules ICG/amine ratio=0.04, free ICG ~0.04 mg/mL): ~35%
- half-life ([1]; ICG solution in PBS, free ICG in PBS, calculated): 19 h
- photothermal heating response ([2]; constant 808 nm irradiation, compared with ICG-NACs): very similar heating curve
- irradiation/cooling cycles in which the target temperature was reached ([2]; irradiated to ~51-54° C. (ICG-NACs 55° C.), cooled to 30° C., repeated, photodegradation stability): 4 cycles
- toxicity to fibroblast cells [3]: non-toxic
- half-life of rapid clearance from the circulatory system ([4]; initial fast phase): 3 to 4 min
- half-life of much slower clearance rate ([4]; second, slower phase): ≥ 1 h
- semilethal dose LD50 [5]: 50 to 80 mg/kg
- published half-life of ICG [6]: ~10 h
